Data reported in patent US20140288102A1, “PREVENTION OF RECURRENCES OF URETHRAL STRICTURES FOLLOWING CONVENTIONAL THERAPY” (priority 2007, published 2014).
Several values for one entry are separate records, joined by “and”; a condition that tells them apart may be missing. Equal values may be shown once. Entries after “also recorded” stand apart in the source; their conditions may differ.

Experiments:
New Zealand male rabbits [1] = assay: Prevention of the recurrence of urethral strictures following endoscopic internal urethrotomy (Example 2); format: in vivo, rabbit
Procedure: Near-circumferential, 15 mm long electrocoagulation of the bulbar urethra was performed endoscopically on 48 New Zealand male rabbits using a pediatric resectoscope and a round-ended electrocautery. Three weeks after electrocoagulation, the urethral strictures were evaluated using video urethrocystoscopy and retrograde urethrocystography. […] The urethral lumen was reduced by 70-95% (mean 88.5%). The obtained strictures were 7 to 19 mm in length (mean 11.7). Endoscopic internal urethrotomy was performed on all surviving rabbits using a cold knife, under visual guidance with a 0.028-inch diameter endoscopic guidewire. A single deep incision was made at the 12 o'clock position in all animals. The rabbits were subsequently randomized into 2 groups: one study group receiving Halofuginone for 10 weeks starting on the day of the urethrotomy, and one control group without Halofuginone. The study group was fed on a diet containing 10 mg/kg of Halofuginone, whereas the control group received a normal, Halofuginone-free diet. The rabbits were then monitored and evaluated for urethral strictures if any of the following signs appeared: decrease in 24-hour urine output, anorexia, worsening of general health status with palpable bladder distension. In the absence of any of these signs, the animals were systematically evaluated for urethral strictures 10 weeks after urethrotomy. This evaluation was performed using video urethrocystoscopy and retrograde urethrocystography. Thereafter, the rabbits were sacrificed for histological examination. The entire urethra was removed and fixed in 10% buffered formaldehyde. The histological examination was performed after the specimens had been embedded in paraffin and stained with Masson trichrome, hematoxylin-eosin, and Sirius Red (IMEB, Inc., Chicago, Ill.) in order to evaluate fibrosis. With the latter staining method, collagen appears in red.

New Zealand male rabbits [2] = assay: Prevention of the onset of urethral strictures after electrocoagulation of the bulbar urethra (Example 1); format: in vivo, rabbit
Procedure: Near-circumferential, 15 mm long electrocoagulation of the bulbar urethra was performed endoscopically on 20 New Zealand male rabbits using a pediatric resectoscope and a round-ended electrocautery. The rabbits were randomized into 2 groups of 10 animals each. The first group received a diet containing 10 mg/kg of Halofuginone initiated 4 days before electrocoagulation and continued for 3 weeks. The second group received a standard chow, free of Halofuginone. Three weeks after electrocoagulation, the rabbits were examined by video urethrocystoscopy and retrograde urethrocystography and subsequently sacrificed for histological examination. The urethra was removed in one piece and fixed in 10% buffered formaldehyde. The histological examination was performed after the specimens were embedded in paraffin and stained with Masson trichrome, hematoxylin-eosin, and Sirius Red (IMEB, Inc., Chicago, Ill.) in order to evaluate fibrosis. With the latter staining method, collagen appears in red.

[3] = the 2 treated rabbits with significant stricture, 3 weeks after electrocoagulation

With O=C(CC1NCCC[C@H]1O)Cn1cnc2cc(Br)c(Cl)cc2c1=O (stereo partly drawn) [Halofuginone] the “retrograde urethrocystogram of the bulbar urethra” value (New Zealand male rabbits [1]; a rabbit of the study group, 10 weeks after internal urethrotomy, FIG. 2B) was “no recurrent stricture was seen”, the “Post-urethrotomy recurrent stricture, Nr./total Nr.” value (New Zealand male rabbits [1]; diet containing 10 mg/kg Halofuginone for 10 weeks from day of urethrotomy, control 14/19, P 0.005) was 5/18 and the “Post-urethrotomy recurrent stricture (%)” value (New Zealand male rabbits [1]; diet containing 10 mg/kg Halofuginone for 10 weeks from day of urethrotomy, control 73, P 0.005) was 27%. For the same compound, the “Nr. according to extent of histological fibrosis: Moderate to severe” value (New Zealand male rabbits [1]; of 18 rabbits, control 2 of 19) was 1, the “Nr. according to extent of histological fibrosis: Mild or absent” value (New Zealand male rabbits [1]; of 18 rabbits, control 5 of 19) was 13 and the “Nr. according to extent of histological fibrosis: Severe” value (New Zealand male rabbits [1]; of 18 rabbits, control 12 of 19) was 4. The “histological study of the site of the prior urethrotomy (fibrosis)” value (New Zealand male rabbits [1]; rabbits with no recurrence of stricture, FIG. 3) was “no fibrosis or minimal fibrosis; also recorded: minimal fibrosis”, the “Post-urethrotomy recurrent stricture, average length” value (New Zealand male rabbits [1]; recurrent strictures in Halofuginone group, control 11.4) was 7.2 mm and the “Post-urethrotomy recurrent stricture, average reduction of lumen” value (New Zealand male rabbits [1]; recurrent strictures in Halofuginone group, control 82.9) was 92%. For the same compound, the “number of rabbits with recurrent stricture diagnosed at the 10-week evaluation” value (New Zealand male rabbits [1]; study group) was 2, the “number of rabbits that developed no recurrence of urethral stricture” value (New Zealand male rabbits [1]; study group, 18 evaluable rabbits) was 13 and the “number of rabbits with recurrence suspected on clinical signs and confirmed radiologically and endoscopically” value (New Zealand male rabbits [1]; study group, before the 10-week evaluation) was 3. The “Nr. of urethral strictures (rabbits with significant urethral stricture)” value (New Zealand male rabbits [2]; 10 rabbits, diet containing 10 mg/kg Halofuginone from 4 days before electrocoagulation, continued 3 weeks, evaluated at 3 weeks, control 10 of 10, p<0.001) was 2, the “number of rabbits with normal urethra” value (New Zealand male rabbits [2]; of 10 treated rabbits, 3 weeks after electrocoagulation) was 6 and the “length of the significant strictures” value (New Zealand male rabbits [2]; [3]) was 10 mm and 8 mm. The “reduction in urethral lumen caliber in the significant strictures” value (New Zealand male rabbits [2]; [3]) was 70% and 90%, the “histological study of the urethra (fibrosis)” value (New Zealand male rabbits [2]; treated rabbits without significant stricture) was “only focal alterations, with limited areas of fibrosis alternating with subnormal or normal urethral walls” and the “narrowing of the urethral lumen” value (New Zealand male rabbits [2]; two other treated rabbits, 3 weeks after electrocoagulation) was “less than 30%”.
